# Measured values taken from patent publication US20100129434A1, “COMPOSITIONS AND METHODS FOR THE TREATMENT OF MUCORMYCOSIS AND OTHER FUNGAL DISEASES” (priority 2006, published 2010).
# How the values were obtained:
# rFTR1 promoter = experiment: Green fluorescent protein (GFP) reporter assay, rFTR1 promoter; format: cell-based, Rhizopus oryzae; details: R. oryzae M16 transformed with rFTR1p::GFP
# Source text: A 1.5 kb fragment upstream of the rFTR10RF was PCR amplified using the following primer pair: sense primer 5′-[…]-3′; and anti-sense primer 5′-[…]-3′. A 2.1 kb fragment containing the constitutively expressed actin promoter was also PCR amplified to use as a control using the following primer pair: sense 5′[…]-3′; and anti-sense:5′ […]-3. Amplified fragments were ligated into the XbaI and EagI sites of plasmid pyr225b (35). GFP was amplified from pGFPB21-43.31 (36), and cloned downstream of either promoter into EagI-SacI sites of the plasmid downstream of either promoter. Finally, a 2.1 kb fragment representing the ORF of pyrF and its native promoter was cloned into SpeI-ClaI sites of the plasmid to serve as a selection marker. […] Purified transformants selected on uracil negative plates were analyzed by Southern blotting.
# Expression of rFTR1p and ACT1p were studied in transformants grown in iron-replete medium (i.e. YNB+CSM-URA) or iron-depleted conditions (i.e. YNB+CSM-URA supplemented with 2 mM deferasirox). […] Additionally, a 1 ml sample from each culture was also used to quantify the fluorescence emission using a FACSCaliber™ (Becton Dickinson®) instrument equipped with an argon laser emitting at 488 nm. Spores were gated by forward and side scatter and fluorescence measured in FL1. […]
# [1] = Deferasirox toxicity studies in neutropenic mice; format: in vivo; details: uninfected neutropenic mice
# Method: Toxicity of deferasirox in neutropenic mice was evaluated. Mice were rendered neutropenic as above and treated with deferasirox at 10 mg/kg twice every day or every other day for 7 days. Mice from three different groups (i.e. placebo, deferasirox daily treatment, and deferasirox every other day treatment) were sacrificed on day 3 or 8 and blood was collected and sent for Charles River Laboratories for evaluation. Additionally, bone marrow smears were prepared from femurs, and tissues were collected, preserved in zinc-buffered formalin, embedded in paraffin, sectioned at 5 μm, and stained with hematoxylin and eosin. The resulting slides were examined by a board-certified veterinary pathologist at Charles River Laboratories.
# Because deferasirox dosing every other day was optimal in the neutropenic model, we sought to identify any potential toxicity caused by daily dosing of deferasirox in neutropenic mice. Mice were made neutropenic with cyclophosphamide as above, but were not infected. The mice were treated with deferasirox 10 mg/kg twice daily for seven days, 10 mg/kg twice every other day for 4 doses, or placebo. Terminal bleeds were performed on day 3 or day 8 to measure complete blood count, serum chemistries, and liver function tests. […]
# [2] = steady state; FDA-approved starting dose 20 mg/kg/d; cited from earlier work
smiles,measurement,setting,value
"O=C(O)c1ccc(-n2nc(-c3ccccc3O)nc2-c2ccccc2O)cc1 [Deferasirox, 4-[3,5-Bis(2-hydroxyphenyl)-1H-1,2,4-triazol-1-yl]-benzoic acid]",GFP fluorescence by confocal microscopy,rFTR1 promoter; 2 mM deferasirox,fluorescent
same,fluorescent spores by flow cytometry,"rFTR1 promoter; 2 mM deferasirox overnight, iron-replete less than 1%",43%
same,"white cell, neutrophil, platelet counts, hemoglobin, serum chemistries, liver function tests versus placebo","[1]; 10 mg/kg twice daily 7 days or twice every other day 4 doses, day 3 or 8",No differences
same,organ toxicity by histopathology,[1]; 10 mg/kg twice daily or twice every other day,no organ-specific toxicity attributable to deferasirox
same,clinically achievable peak serum level,[2],~38 µg/mL
same,clinically achievable trough serum level,[2],~17 µg/mL
